Experimental findings from patent publication US6352993B1, “Pyrimidine derivatives and processes for the preparation thereof” (Yuhan Corporation, priority 1997, dated 2002) are described below.

Structures are written as SMILES. Structures can show the parent of a compound that is named as a salt.

The subject of assay [1] is gastric secretion in pylorus-ligated Sprague-Dawly rats. Nature of the assay: Inhibition of gastric secretion (pylorus-ligated rats, Shay method). The class given is in vivo. As to conditions: 20 mg/kg intraduodenally, 5 hours; for Relative conc.: gastric juice acidity relative to omeprazole, equation (II); for Relative volume: gastric juice amount relative to omeprazole, equation (I); for Relative Acid Output: total acid output relative to omeprazole, equation (III). The method, then:
Test 2: Inhibition of gastric secretion
In accordance with the method disclosed in Shay, H., et al., Gastroenterology 5 43-61(1945), Test 2 was carried out.
Sprague-Dawly rats having a body weight of 170±10 g were divided into 3 groups(n=5) and deprived of food for 24 hours before the experiment with free access to water. Under ether anesthesia, the abdomen was incised, and the pylorus was ligated. As a comparative group, Group 1 was administered intraduodenally in a volume of 0.5 ml/200 g of 30% aqueous polyethylene glycol 400 solution. Groups 2 and 3 were administered intraduodenally with the compound of Example and omeprazole, respectively, each of which was suspended in 30% aqueous polyethylene glycol 400 solution at a concentration of 20 mg/kg. After closing the abdominal cavity, the rats were placed for 5 hours and then killed by cervical dislocation. The stomach was extracted to obtain gastric juice.
Tne gastric juice was centrifuged at 1,000 g to remove precipitates. The amount and acidity of the gastric juice were measured. Relative volumes, relative acid concentrations and relative acid outputs of the test compounds were calculated from equations(I), (II) and (III) and the results are shown in Table 2.
Relative volume=(the average amount of gastric juice of Group 1—the average amount of gastric juice of Group 2)/(the average amount of gastric juice of Group 1−the average amount of gastric juice of Group 3)—(I)
Relative acid concerntration=(the average acidity of Group 1—the average acidity of Group 2)/(the average acidity of Group 1—the average acidity of Group 3)—(II)
Relative acid output (the total amount of acid output of Group 1—the total amount of acid output of Group 2)/(the total amount of acid output of Group 1—the total amount of acid output of Group 3)—(m)

In assay [2] the target is proton pump (H+/K+-ATPase) (UniProt P19156). Nature of the assay: Inhibition of proton pump (H+/K+-ATPase activity). On the set-up: Effect ratio. It is filed as biochemical. The note with it: relative to omeprazole IC50. The protocol: (§1) Test 1: Inhibition of proton pump (H^+/K^+-ATPase activity)
(§2) A proton pump enzyme was prepared by the same method as in the Experiment 1-1 of WO 94/14795. Further, the inhibitory effect of proton pump activity was measured by the same method as in Experiment 1-2 of WO 94/14795.
(§3) Namely, the proton pump activity stimulated by Mg^++ was used as a negative comparative group, and the activity stimulated by Mg^++ and K^+ was used as a positive comparative group. The comparative compound was omeprazole.
(§4) Test tubes were divided into 4 groups: Group 1 as negative comparative group(n=3), Group 2 as positive comparative group(n=3), Group 3(n=5×2) to be administered with the compound of the present invention and Group 4(n=5×2) to be administered with the comparative compound.
(§5) The inhibitory effects of Groups 3 and 4 on proton pump activity were measured by employing the compound prepared in Examples and omeprazole, respectively, each of which was dissolved in dimethylsulfoxide at 5 different concentrations.
(§6) To each of Groups 1, 2, 3 and 4 were added 100 μl of magnesium chloride(40 mM) dissolved in 40 mM Tris-HCI buffer(ph 6.0) and 100 μg of the enzyme source. The 50 μl of potassium chloride(50 mM) and 50 μl of ammonium chloride(6 mM) dissolved in 40 mM Tris-HCl buffer(pH 6.0) were added to all groups except for group 1.
(§7) 10 μl of dimethylsulfoxide was added to each of Groups 1 and 2; and to Group 3 was added 10 μl of dimethylsulfoxide solution prepared by dissolving compound of EXAMPLE at 5 different concentration(n=5×2). To Group 4, 10 μl of the solution prepared by dissolving omeprazole in dimethylsulfoxide at 5 different concentration(37.6, 21.4, 12.2, 7.0 and 4.0 μM) was added(n=5×2). 40 mM Tris-HCI buffer(pH=6.0) was added thereto so as to make the total volume 400 μl.
(§8) Thereafter, the test tube of each Group were placed at 37° C. for 30 minutes for the preincubation. 100 μl ATP solution (6.6 mM) was added until the reaction volume became 500 μl. After the reaction was carried out at 37° C. for 30 minutes, 25% cold trichloroacetic acid was added to terminate the enzyme reaction. The released inorganic phosphate was measured by an automatic analyzer(Express 550, coming).
(§9) The difference between Group 1 and Group 2 represents the proton pump activity activated by K^+ only. The IC50s of Group 3 and 4 were calculated from Litchfield-wilcoxon equation[see, e.g., J. Pharrnacol. Exp. Ther., 96, 99(1949)]. The concentrations of the test compounds inhibiting 50% of the proton pump activity are represented as IC50 in Table 1.

For assay [3] the target is unchanged. Nature of the assay: Inhibition of proton pump (H+/K+-ATPase activity). The class given is biochemical. On the set-up: other: K+-stimulated proton pump activity, pH 6.0, 37°. As to conditions: K+-stimulated proton pump activity, pH 6.0, 37° C., 30 minutes preincubation; read-out: IC50 (concentration inhibiting 50% of the proton pump activity). The method, then:
as §1, §2, §3, §4, §5, §6, §7, §8, §9

Regarding `CCC(=O)OCc1nc(Nc2ccc(F)cc2)nc(N2CCc3ccccc3C2C)c1C` (stereo not drawn) [Example 51, 5-methyl-6-ethylcarbonyloxymethyl-2-(4-fluorophenylamino)-4-(1-methyl-1,2,3,4-tetrahydroisoquinolin-2-yl)pyrimidine], in assay [1], the Relative conc. was 1.02, the Relative volume came out at 1.09 and the “Relative Acid Output” value is recorded as 1.06.

Take `Cc1c(COC(=O)[C@@H](N)Cc2ccccc2)nc(Nc2ccc(F)cc2)nc1N1CCc2ccccc2C1C.Cl.Cl` (stereo partly drawn) [Example 172, 5-methyl-6-(phenylalanyloxymethyl)-2-(4-fluorophenylamino)-4-(1-methyl-1,2,3,4-tetrahydroisoquinolin-2-yl)pyrimidine dihydrochloride]: in assay [1], the Relative conc. is given as 1.33, the Relative volume turned out to be 1.48 and the “Relative Acid Output” value worked out at 1.34.

Turning to `CCCNc1nc(COC)c(C)c(N2CCc3ccccc3C2)n1.Cl` [Example 25, 6-methoxymethyl-5-methyl-2-(2-methylethylamino)-4-(1,2,3,4-tetrahydroisoquinolin-2-yl)pyrimidine hydrochloride], in assay [2], the Effect ratio came out at 6.0. In addition, in assay [1], the Relative conc. was found to be 0.52, the Relative volume was 1.00 and the “Relative Acid Output” value was 0.86. Also, the IC50 in assay [3] came out at 1.85 µM.

As to `C=CCNc1nc(C)c(C)c(N2CCc3ccccc3C2)n1` [Example 2, 5,6-dimethyl-2-(3-allylamino)-4-(1,2,3,4-tetrahydroisoquinolin-2-yl)pyrimidine hydrochloride], the Effect ratio in assay [2] is 1.4. For the same compound, in assay [1], the Relative conc. came to 0.57, the Relative volume is given as 0.69 and the “Relative Acid Output” value is on record as 0.70. Besides, the IC50 in assay [3] amounted to 7.85 µM.

Regarding `COc1ccc2[nH]c([S+]([O-])Cc3ncc(C)c(OC)c3C)nc2c1` (stereo not drawn) [Omeprazole, omeprazole, reference compound], the IC50 in assay [3] was found to be 11.1 µM.

For `Cc1c(CO)nc(Nc2ccccc2)nc1N1CCc2ccccc2C1C.Cl` (stereo not drawn) [Example 32, 6-hydroxymethyl-5-methyl-2-phenylamino-4-(1-methyl-1,2,3,4-tetrahydroisoquinolin-2-yl)pyrimidine hydrochloride], in assay [2], the Effect ratio turned out to be 8.3. In addition, in assay [1], the Relative conc. is listed as 0.47, the Relative volume is given as 0.84 and the “Relative Acid Output” value was found to be 0.77. The IC50 in assay [3] was determined as 1.34 µM.

As to `Cc1c(COC(=O)C2CC2)nc(Nc2ccc(F)cc2)nc1N1CCc2ccccc2C1C` (stereo not drawn) [Example 54, 5-methyl-6-cyclopropylcarbonyloxymethyl-2-(4-fluorophenylamino)-4-(1-methyl-1,2,3,4-tetrahydroisoquinolin-2-yl)pyrimidine], in assay [1], the Relative conc. amounted to 0.79, the Relative volume was determined as 0.79 and the “Relative Acid Output” value came out at 0.95.

Take `Cc1c(COC(=O)[C@@H](N)C(C)C)nc(Nc2ccc(F)cc2)nc1N1CCc2ccccc2C1C.Cl.Cl` (stereo partly drawn) [Example 171, 5-methyl-6-valyloxymethyl-2-(4-fluorophenylamino)-4-(1-methyl-1,2,3,4-tetrahydroisoquinolin-2-yl)pyrimidine dibydrochloride]: in assay [1], the Relative conc. came out at 1.42, the Relative volume is 1.46 and the “Relative Acid Output” value is 1.33.

As to `Cc1c(COC(=O)C(Cc2cn(Cc3ccccc3)cn2)NC(=O)OC(C)(C)C)nc(Nc2ccc(F)cc2)nc1N1CCc2ccccc2C1C` (stereo not drawn) [Example 144, 5-methyl-6-(N-t-butoxycarbonyl-Im-benzyl-histidyloxymethyl)-2-(4-fluorophenylamino)-4-(1-methyl-1,2,3,4-tetrahydroisoquinolin-2-yl)pyrimidine], in assay [1], the Relative conc. was 0.80, the Relative volume was found to be 0.90 and the “Relative Acid Output” value is given as 0.94.

As for `Cc1c(COC(=O)CNC(=O)OC(C)(C)C)nc(Nc2ccc(F)cc2)nc1N1CCc2ccccc2C1C` (stereo not drawn) [Example 139, 5-methyl-6-(N-t-butoxycarbonyl-glycyloxymetyl)-2-(4-fluorophenylamino)-4-(1-methyl-1,2,3,4-tetrahydroisoquinolin-2-yl)pyrimidine], in assay [1], the Relative conc. is on record as 0.75, the Relative volume is reported as 1.01 and the “Relative Acid Output” value is reported as 1.01.

Regarding `Cc1nc(Nc2ccc(F)cc2)nc(N2CCc3cc(OC(=O)c4ccc([N+](=O)[O-])cc4)ccc3C2C)c1C` (stereo not drawn) [Example 107, 5,6-diinethyl-2-(4-fluorophenylamino)-4-{1-methyl-6-(4-nitrobenzoyloxy)-1,2,3,4-tetrahydroisoquinolin-2-yl}pyrimidine], in assay [1], the Relative conc. is 0.56, the Relative volume turned out to be 0.62 and the “Relative Acid Output” value is reported as 0.73.

Regarding `Cc1c(COC(=O)CN2CCOCC2)nc(Nc2ccc(F)cc2)nc1N1CCc2ccccc2C1C.Cl.Cl` (stereo not drawn) [Example 175, 5-methyl-6-(4-morpholineacetoxymethyl)-2-(4-fluorophenylamino)-4-(t1-methyl-1,2,3,4tetrahydroisoquinolin-2-yl)pyrimidine dihydrochloride], in assay [1], the Relative conc. was 0.30, the Relative volume turned out to be 0.87 and the “Relative Acid Output” value stood at 0.79.

`Cc1nc(Nc2ccc(F)cc2)nc(N2CCc3c(O)ccc(O)c3C2C)c1C.Cl` (stereo not drawn) [Example 43, 5,6-dimethyl-2-(4-fluorophenylamino)-4-(5,8-dihydroxy-1-methyl-1,2,3,4-tetrahydroisoquinolin-2-yl)pyrimidine hydrochloride]: the Effect ratio in assay [2] was 61.7. In assay [3], the IC50 turned out to be 0.18 µM.

For the compound `Cc1c(COC(=O)C(C)C)nc(Nc2ccc(F)cc2)nc1N1CCc2ccccc2C1C` (stereo not drawn) [Example 52, 5-methyl-6-isopropylcarbonyloxymethyl-2-(4-fluorophenylamino)-4-(1-methyl-1,2,3,4-tetrahydroisoquinolin-2-yl)pyrimidine], in assay [1], the Relative conc. came to 0.88, the Relative volume is 0.86 and the “Relative Acid Output” value was 0.96.

In the case of `Cc1c(COC(=O)CN2CCCCC2)nc(Nc2ccc(F)cc2)nc1N1CCc2ccccc2C1C.Cl.Cl` (stereo not drawn) [Example 181, 5-rethyl-6-(1-piperidineacetoxymethyl)-2-(4-fluorophenylamino)-4-(1-methyl-1,2,3,4-tetrahydroisoquinolin-2-yl)pyrimidine dihydrochloride], in assay [1], the Relative conc. came out at 0.16, the Relative volume was found to be 0.99 and the “Relative Acid Output” value is on record as 0.80.

As for `CC(=O)OCc1nc(Nc2ccc(F)cc2)nc(N2CCc3ccccc3C2C)c1C` (stereo not drawn) [Example 50, 5-methyl-6-acetoxymethyl-2-(4-fluorophenylamino)-4-(1-methyl-1,2,3,4-tetrahydroisoquinolin-2-yl)pyrimidine], in assay [1], the Relative conc. is 0.77, the Relative volume came to 1.01 and the “Relative Acid Output” value is recorded as 0.98.
